{"source": "paper PMC11965401", "about": "(Nature Communications, 2025)", "molecules": {"B1": {"name": "FLAG-KBTBD4^R313PRR (17-536 a.a.), full-length dimer, Q9NVX7-2 17-534 (natural protein)", "chain": "MESPEEPGASMDENYFVNYTFKDRSHSGRVAQGIMKLCLEEELFADVTISVEGREFQLHRLVLSAQSCFFRSMFTSNLKEAHNRVIVLQDVSESVFQLLVDYIYHGTVKLRAEELQEIYEVSDMYQLTSLFEECSRFLARTVQVGNCLQVMWLADRHSDPELYTAAKHCAKTHLAQLQNTEEFLHLPHRLLTDIISDGVPCSQNPTEAIEAWINFNKEEREAFAESLRTSLKEIGENVHIYLIGKESSRTHSLAVSLHCAEDDSISVSGQNSLCHQITAACKHGGDLYVVGGSIPRPRRMWKCNNATVDWEWCAPLPRDRLQHTLVSVPGKDAIYSLGGKTLQDTLSNAVIYYRVGDNVWTETTQLEVAVSGAAGANLNGIIYLLGGEENDLDFFTKPSRLIQCFDTETDKCHVKPYVLPFAGRMHAAVHKDLVFIVAEGDSLVCYNPLLDSFTRLCLPEAWSSAPSLWKIASCNGSIYVFRDRYKKGDANTYKLDPATSAVTVTRGIKVLLTNLQFVLA", "modifications": "here or on the partner: RED-NHS 2nd generation fluorescent label, in the MST experiments only; RED-NHS 2nd generation fluorescent label, in the MST experiments only"}, "B2": {"name": "FLAG-KBTBD4^WT (17-534 a.a.), Q9NVX7-2 17-534 (natural protein)", "chain": "MESPEEPGASMDENYFVNYTFKDRSHSGRVAQGIMKLCLEEELFADVTISVEGREFQLHRLVLSAQSCFFRSMFTSNLKEAHNRVIVLQDVSESVFQLLVDYIYHGTVKLRAEELQEIYEVSDMYQLTSLFEECSRFLARTVQVGNCLQVMWLADRHSDPELYTAAKHCAKTHLAQLQNTEEFLHLPHRLLTDIISDGVPCSQNPTEAIEAWINFNKEEREAFAESLRTSLKEIGENVHIYLIGKESSRTHSLAVSLHCAEDDSISVSGQNSLCHQITAACKHGGDLYVVGGSIPRRMWKCNNATVDWEWCAPLPRDRLQHTLVSVPGKDAIYSLGGKTLQDTLSNAVIYYRVGDNVWTETTQLEVAVSGAAGANLNGIIYLLGGEENDLDFFTKPSRLIQCFDTETDKCHVKPYVLPFAGRMHAAVHKDLVFIVAEGDSLVCYNPLLDSFTRLCLPEAWSSAPSLWKIASCNGSIYVFRDRYKKGDANTYKLDPATSAVTVTRGIKVLLTNLQFVLA", "modifications": "here or on the partner: RED-NHS 2nd generation fluorescent label, in the MST experiments only; RED-NHS 2nd generation fluorescent label, in the MST experiments only"}}, "key": {"[1]": {"target": "T1, CoREST1^NT2-HDAC2 (Homo sapiens, UniProt Q92769)", "T1 construct": "untagged full-length HDAC2 1-488 co-expressed with CoREST1 ELM2-SANT1 71-259 (C-terminal FLAG/10xHis) in Expi293F, purified; with REST corepressor 1", "test": "microscale thermophoresis, competition with labelled KBTBD4 R313PRR", "details": "blocks KBTBD4 R313PRR binding to HDAC2; HDAC2 catalytic site; pH 7.5, 25 °C"}, "[2]": {"target": "T2, KBTBD4^WT with CoREST1^NT2-HDAC2 (ternary complex) (Homo sapiens, UniProt Q92769+Q9NVX7)", "T2 construct": "FLAG-KBTBD4 17-534 (near full length, dimer, N-terminal 3xFLAG); untagged full-length HDAC2 1-488 co-expressed with CoREST1 ELM2-SANT1 71-259 carrying C-terminal FLAG/10xHis; Expi293F; purified; complexes 2:1:1, also 2:1 and 2:2 KBTBD4:HDAC2 by cryo-EM; with REST corepressor 1", "test": "microscale thermophoresis, labelled KBTBD4 WT", "type": "binding"}, "[3]": {"target": "FLAG-KBTBD4^R313PRR (17-536 a.a.), full-length dimer (human (from the printed UniProt entry)) (UniProt Q9NVX7)", "test": "MST; unlabelled partner titrated into 40 nM RED-NHS-labelled KBTBD4 variant, no compound; 50 mM HEPES pH 7.5, 150 mM NaCl, 10% glycerol, 5 mM MgCl2, 0.05% Tween-20, 0.1 mM TCEP; 25 °C; apparent KD; triplicates"}, "[4]": {"target": "FLAG-KBTBD4^R313PRR (17-536 a.a.), full-length dimer (human (from the printed UniProt entry)), Q9NVX7", "test": "cryo-EM structure; 4 µM KBTBD4^R313PRR mixed with 4 µM CoREST1^NT2-HDAC2, 50 mM HEPES pH 7.5, 150 mM NaCl, 10% glycerol, 5 mM MgCl2, 0.5 mM TCEP, 15 min on ice, not crosslinked", "details": "remark: other sources report otherwise"}, "[5]": {"target": "FLAG-KBTBD4^WT (17-534 a.a.) (human (from the printed UniProt entry)), Q9NVX7", "test": "cryo-EM structure; 4 µM KBTBD4^WT, 4 µM CoREST1^NT2-HDAC2 and 40 µM UM171, 50 mM HEPES pH 7.5, 150 mM NaCl, 5% glycerol, 5 mM MgCl2, 0.5 mM TCEP, crosslinked with BS3", "details": "remark: other sources report otherwise"}}, "data": [{"molecule": "CC(=O)Nc1ccc(C(=O)Nc2cc(-c3cccs3)ccc2N)cc1", "note": "[BRD6929]", "values": [{"measurement": "microscale thermophoresis, competition with labelled KBTBD4 R313PRR", "setting": "[1]", "value": "the addition of BRD6929 abrograted all KBTBD4^R313PRR-HDAC2 binding in the MST assay"}]}, {"molecule": "Cn1cc(-c2ccc3c(c2)[nH]c2nc(Cc4ccccc4)nc(NC4CCC(N)CC4)c23)cn1", "note": "(stereo not drawn) [compound 2, compound (2)]", "values": [{"measurement": "Kd", "setting": "[2]", "value": 26000, "unit": "nM"}]}, {"molecule": "COC(=O)c1ccc2c(c1)[nH]c1nc(Cc3ccccc3)nc(NCCCN3CCCC3)c12", "note": "[compound 13, S234984]", "values": [{"measurement": "Kd", "setting": "[2]", "value": 2300, "unit": "nM"}]}, {"molecule": "CoREST1^NT2-HDAC2 complex (recombinant, co-expressed) (from UniProt Q92769-1 1-488)", "values": [{"measurement": "Kd", "setting": "[3]", "value": 750, "unit": "nM"}]}, {"molecule": "B1", "values": [{"measurement": "stoichiometry N", "setting": "[4]", "value": 2}]}, {"molecule": "B2", "values": [{"measurement": "stoichiometry N", "setting": "[5]", "value": 2}]}]}
